Drawing on patent US20080292619A1, “Pharmaceutical Composition Containing Meltrin Antagonist” (MOCHIDA PHARMACEUTICAL CO., LTD., priority 2004, published 2008), this text covers Suppressive effect for 1 substance.

In the oligonucleotide strings, read from the 5' end, every base follows the letter of its sugar. An asterisk marks phosphorothioate; unmarked linkages are phosphodiester. Other units and linkages are bracketed, terminal groups are in braces. A string of capitals states the bases alone. d = 2'-deoxy (DNA)

The series deals with human preadipocyte. The series is described as follows: Adipocyte proliferation and differentiation, neutral fat accumulation (Adipo Red). Type of series: cell-based. The settings on record: antibody final concentration 5 μL/mL; 15 days; AdipoRed. Here is the method:
The differentiation medium was prepared by adding supplement kit PGM SingleQuots, #PT-9500, Lot.08101163 (Sanko Junyaku Co., Ltd.) to 100 mL of growth medium. 50 μL of the supernatant was removed from the 96 well plate prepared in Example 12, and 50 μL of the siRNA or the antisense oligonucleotide prepared in the differentiation medium was added, and incubation was conducted in a CO2 incubator for 5 days to 15 days.
The amount of neutral fat accumulated in the adipocyte was determined by fluorometry using Adipo Red stain.
After taking the 96 well plate out of the CO2 incubator, the plate was allowed to stand until it cooled to room temperature. The plate was centrifuged at 300 g (1200 rpm) for 10 minutes at room temperature to remove the medium. Next, the plate was gently washed with 200 μL/well of PBS (Sigma), and 200 μL/well of PBS was added to the well.
Next, 5 μL/well of Adipo Red Assay Reagent (Adipo Red, Cat. #PT-7009, Lot.3F0497, A Cambrex Company) was added, and the plate was allowed to stand at room temperature for at least 10 minutes to thereby stain the neutral fat that had accumulated in the adipocyte. The fluorescence intensity was measured in a fluorometer at an excitation wavelength of 485 nm and an emission wavelength of 535 nm to thereby determine the fat accumulation.
According to the method of Example 15, M82463 was added to the human preadipocyte incubation system at a concentration of 0.3 to 10 μg/mL so that the final concentration of the DMSO was 0.2%. As a control, a group having only the DMSO added to a final concentration of 0.2% was used.
After preparation of the antibody to the concentration of 0.100 mg/mL with physiological saline, 9 volumes of adipocyte differentiation medium was added to 1 volume of the antibody solution, and the solution was sterilized by filtering through a filter having a diameter of 0.22 μm (MILLEX-GV 0.22 μm Filter unit, 3slgv013SL, Lot. R2NN83622, MILLIPORE). […]

For “2 (dC*dT*dG*dG*dT*dT*dA*dA*dT*dG*dG*dT*dT*dC*dA*dC*dA*dT*dC*dT) [compound 2]”, the Suppressive effect result was “++ (suppression by 50% or higher)”.
